Measured values as given in ChEMBL document CHEMBL3039007, “Structure-based identification of OATP1B1/3 inhibitors” (Mol Pharmacol, 2013).

Columns and labels:
[1] = target: T1, Solute carrier organic anion transporter family member 1B3 (Homo sapiens, UniProt Q9NPD5); settings: chinese hamster, cho, 10 µM
T1 sequence (Q9NPD5 whole entry): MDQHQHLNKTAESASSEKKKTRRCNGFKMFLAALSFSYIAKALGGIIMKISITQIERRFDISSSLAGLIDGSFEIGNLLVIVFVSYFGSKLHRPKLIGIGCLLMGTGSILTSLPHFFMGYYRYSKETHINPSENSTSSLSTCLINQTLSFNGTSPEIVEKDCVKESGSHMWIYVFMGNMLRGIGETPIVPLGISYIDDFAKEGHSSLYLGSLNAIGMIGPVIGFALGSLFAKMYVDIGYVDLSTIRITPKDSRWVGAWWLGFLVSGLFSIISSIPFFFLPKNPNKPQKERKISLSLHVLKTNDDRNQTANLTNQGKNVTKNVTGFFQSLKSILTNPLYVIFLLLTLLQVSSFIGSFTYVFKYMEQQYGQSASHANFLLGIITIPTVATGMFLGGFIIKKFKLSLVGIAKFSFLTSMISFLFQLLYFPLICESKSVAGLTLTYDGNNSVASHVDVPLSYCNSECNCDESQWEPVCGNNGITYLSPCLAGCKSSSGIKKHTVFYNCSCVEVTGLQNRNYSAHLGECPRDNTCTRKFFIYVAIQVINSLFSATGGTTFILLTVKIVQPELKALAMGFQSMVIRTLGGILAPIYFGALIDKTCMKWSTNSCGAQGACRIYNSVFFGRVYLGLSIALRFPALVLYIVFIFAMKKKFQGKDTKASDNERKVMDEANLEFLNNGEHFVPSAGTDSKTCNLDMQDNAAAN

[2] = target: T2, Solute carrier organic anion transporter family member 1B1 (Homo sapiens, UniProt Q9Y6L6); settings: chinese hamster, cho, 10 µM
T2 sequence (Q9Y6L6 whole entry): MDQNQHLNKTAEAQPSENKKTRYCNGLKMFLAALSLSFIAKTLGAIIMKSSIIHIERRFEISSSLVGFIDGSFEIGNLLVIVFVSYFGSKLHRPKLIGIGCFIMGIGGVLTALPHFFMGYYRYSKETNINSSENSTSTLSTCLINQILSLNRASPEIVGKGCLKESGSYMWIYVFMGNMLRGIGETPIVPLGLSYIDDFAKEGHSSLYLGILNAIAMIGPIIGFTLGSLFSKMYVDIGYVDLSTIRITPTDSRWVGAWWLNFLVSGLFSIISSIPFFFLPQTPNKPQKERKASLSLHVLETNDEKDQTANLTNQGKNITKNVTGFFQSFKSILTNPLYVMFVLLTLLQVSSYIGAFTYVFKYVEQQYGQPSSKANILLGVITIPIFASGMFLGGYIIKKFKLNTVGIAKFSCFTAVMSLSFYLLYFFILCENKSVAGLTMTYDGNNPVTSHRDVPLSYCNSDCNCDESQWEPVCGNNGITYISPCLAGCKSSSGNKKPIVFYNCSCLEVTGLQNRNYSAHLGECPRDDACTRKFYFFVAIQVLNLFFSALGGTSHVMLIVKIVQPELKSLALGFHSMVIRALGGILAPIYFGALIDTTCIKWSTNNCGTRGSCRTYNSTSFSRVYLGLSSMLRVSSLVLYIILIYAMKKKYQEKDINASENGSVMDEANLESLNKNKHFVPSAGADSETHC

`COc1ccc(C(=O)/C=C/c2ccccc2)cc1` [4'-METHOXYCHALCONE] showed a residual activity [1] of 93.51% and a residual activity [2] of 100.4%.
For `Cc1coc2ccccc2c1=O` [METHYLCHROMONE], the residual activity [1] was 92.21% and the residual activity [2] was 91.88%.
`Cn1c(=O)[nH]c2ncn(C)c2c1=O` [PARAXANTHINE] gave a residual activity [1] of 88.58% and a residual activity [2] of 94.78%.
For `C[C@@H]1O[C@@H](O[C@H]2[C@H](O[C@H]3CC[C@]4(C)C5CC=C6[C@@H]7CC(C)(C)CC[C@]7(C(=O)O)CC[C@]6(C)[C@]5(C)CC[C@@H]4[C@]3(C)CO)OC[C@H](O)[C@@H]2O)[C@H](O)[C@H](O)[C@H]1O` (some centres undefined), the residual activity [1] was 112.9% and the residual activity [2] was 103.8%.
For `NC[C@H](O)c1ccc(O)c(O)c1` [NOREPINEPHRINE], the residual activity [1] was 102.3% and the residual activity [2] was 112.9%.
`O=C(O)c1cc2cc(F)ccc2[nH]1` [5-FLUOROINDOLE-2-CARBOXYLIC ACID] showed a residual activity [1] of 103.9% and a residual activity [2] of 108.9%.
`C/C1=C\CC/C(C)=C/CC(C)(C)/C=C/C1` [ALPHA-HUMULONE] was tested, and the residual activity [1] was 109.1% and the residual activity [2] was 112.4%.
Compound `CC(=O)O[C@@](C)(CCC=C(C)C)C1CC=C(C)CC1` (some centres undefined) [BISABOLOL ACETATE] has a residual activity [1] of 92.66% and a residual activity [2] of 80.65%.
With `COc1cc([C@@H]2c3cc4c(cc3[C@H](O)[C@H]3COC(=O)[C@H]23)OCO4)cc(OC)c1OC` [PODOFILOX] the residual activity [1] was 95.19% and the residual activity [2] was 63.87%.
`CC1(C)O[C@@H]2C[C@H]3[C@@H]4CCC5=CC(=O)CC[C@]5(C)[C@@]4(F)[C@@H](O)C[C@]3(C)[C@]2(C(=O)CCl)O1` [HALCINONIDE] showed a residual activity [1] of 103.5% and a residual activity [2] of 88.26%.
With `COc1ccc(-c2cc(C(F)F)nn2-c2ccc(S(N)(=O)=O)cc2)cc1F` [DERACOXIB] the residual activity [1] was 98.95% and the residual activity [2] was 127.8%.
`CC(=O)Nc1c(I)cc(I)c(C(=O)O)c1I` [ACETRIZOIC ACID] was tested, and the residual activity [1] was 98.63% and the residual activity [2] was 133.1%.
`O=C1NS(=O)(=O)c2ccccc21` [SACCHARIN] was tested, and the residual activity [1] was 110.9% and the residual activity [2] was 112.4%.
In the case of `COC(=O)[C@@H]1OC(=O)[C@H]2O[C@]23[C@@]2(C)[C@H](CC[C@@]13C)[C@@]1(C)[C@@H](OC(C)=O)C[C@@H](OC(C)=O)C(C)(C)[C@@H]1C[C@@H]2O`, the residual activity [1] is reported as 72.87% and the residual activity [2] is reported as 66.58%.
`CCCCCCCCNC(C)C(O)c1ccc(SC(C)C)cc1` (centres undefined) [SULOCTIDIL] gave a residual activity [1] of 108.7% and a residual activity [2] of 143.8%.
`CC(C)[C@@H](C)/C=C/[C@@H](C)[C@H]1CC[C@H]2C3=CCC4CC(=O)CC[C@]4(C)[C@H]3CC[C@]12C` (some centres undefined) [ERGOSTA-7,22-DIEN-3-ONE] showed a residual activity [1] of 94.39% and a residual activity [2] of 71.12%.
Compound `CC(=O)NCCc1c[nH]c2ccc(O)cc12` [ACETYLSEROTONIN] has a residual activity [1] of 91.29% and a residual activity [2] of 100.7%.
`CCOC(=O)NNc1nncc2ccccc12.Cl` [TODRALAZINE HYDROCHLORIDE] showed a residual activity [1] of 106.5% and a residual activity [2] of 100.5%.
`C#CCCCCCCCCCCCC(O)CC(O)COC(C)=O` (centres undefined) [AVOCADYNE ACETATE] was tested, and the residual activity [1] was 109.9% and the residual activity [2] was 144.6%.
For `CCCCC1C(=O)N(c2ccccc2)N(c2ccc(O)cc2)C1=O` (centres undefined) [OXYPHENBUTAZONE ANHYDROUS], the residual activity [1] was 83.15% and the residual activity [2] was 42.04%.
`O=c1cc[nH]c(=S)[nH]1` [THIOURACIL] showed a residual activity [1] of 77.62% and a residual activity [2] of 95.34%.
Compound `COC(=O)c1cc(O)c(=O)c2c(O)c(O)ccc2c1` [METHYL 7-DESHYDROXYPYROGALLIN-4-CARBOXYLATE] has a residual activity [1] of 80.24% and a residual activity [2] of 48.16%.
Work on `CN1CCN(C(c2ccccc2)c2ccccc2)CC1` [CYCLIZINE] yielded a residual activity [1] of 103% and a residual activity [2] of 88.13%.
Work on `C/C=C/c1ccc(OC)cc1` [ANETHOLE] yielded a residual activity [1] of 124.1% and a residual activity [2] of 89.5%.
In the case of `C[C@@H]1CC(Cl)CC[C@H]1C(=O)OC(C)(C)C.C[C@@H]1CCC(Cl)C[C@H]1C(=O)OC(C)(C)C` (some centres undefined), the residual activity [1] is reported as 115.1% and the residual activity [2] is reported as 121%.
Work on `CN(C)CCC[C@@]1(c2ccc(F)cc2)OCc2cc(C#N)ccc21.O=C(O)C(=O)O` [ESCITALOPRAM OXALATE] yielded a residual activity [1] of 117.8% and a residual activity [2] of 102.3%.
For `CCC[C@H]1CCCCN1` [CONIINE], the residual activity [1] was 100.1% and the residual activity [2] was 105.3%.
`CN1Cc2c(ccc3c2OCO3)C2C(O)Cc3cc4c(cc3C21)OCO4` (stereo not drawn) [CHELIDONINE (+)] gave a residual activity [1] of 82.29% and a residual activity [2] of 59.5%.
`C=CCc1ccc(O)c(OC)c1` [EUGENOL] showed a residual activity [1] of 104.3% and a residual activity [2] of 106%.
Compound `COC1=C(OC)C(=O)C(C/C=C(\C)CC/C=C(\C)CC/C=C(\C)CC/C=C(\C)CC/C=C(\C)CC/C=C(\C)CC/C=C(\C)CC/C=C(\C)CC/C=C(\C)CCC=C(C)C)=C(C)C1=O` [UBIDECARENONE] has a residual activity [1] of 137.7% and a residual activity [2] of 118.6%.
`CN(C)CCc1c[nH]c2ccc(CS(=O)(=O)N3CCCC3)cc12` [ALMOTRIPTAN] showed a residual activity [1] of 94.33% and a residual activity [2] of 95.85%.
With `CCC1(c2ccc(N)cc2)CCC(=O)NC1=O` (centres undefined) [AMINOGLUTETHIMIDE] the residual activity [1] was 77% and the residual activity [2] was 52.33%.
Work on `CCC(=O)OC1[C@@H]2CC3=C4CC(=O)O[C@@H](c5ccoc5)[C@]4(C)CCC3[C@@](C)(C2=O)[C@@H](CC(=O)OC)C1(C)C` (some centres undefined) [KHAYASIN C] yielded a residual activity [1] of 67.18% and a residual activity [2] of 59.29%.
For `CC1COc2c(N3CCN(C)CC3)c(F)cc3c(=O)c(C(=O)O)cn1c23` (centres undefined) [OFLOXACIN], the residual activity [1] was 89.51% and the residual activity [2] was 65.85%.
Work on `Nc1c2c(nc3ccccc13)CCCC2O.O=C(O)/C=C\C(=O)O` (centres undefined) [VELNACRINE MALEATE] yielded a residual activity [1] of 96.75% and a residual activity [2] of 103.3%.
`CC(C)(O)[C@@H]1Cc2cc3ccc(=O)oc3cc2O1` [MARMESIN] showed a residual activity [1] of 103.9% and a residual activity [2] of 89.64%.
For `NC(CO)(CO)CO.O=C(c1ccccc1)c1ccc2n1CCC2C(=O)O` (centres undefined) [KETOROLAC TROMETHAMINE], the residual activity [1] was 87.08% and the residual activity [2] was 196.1%.
Work on `Cn1cc[nH]c1=S` [METHIMAZOLE] yielded a residual activity [1] of 105.6% and a residual activity [2] of 111.7%.
Work on `COc1ccc(-c2coc3cc(O)ccc3c2=O)c(O)c1O` [KOPARIN] yielded a residual activity [1] of 86.85% and a residual activity [2] of 88.35%.
With `NS(=O)(=O)c1cc(C2(O)NC(=O)c3ccccc32)ccc1Cl` (centres undefined) [CHLORTHALIDONE] the residual activity [1] was 67.04% and the residual activity [2] was 62.41%.
In the case of `CO[C@H]1C[C@H](O[C@H]2CC[C@@]3(C)[C@H](CC[C@@H]4[C@@H]3CC[C@]3(C)[C@@H](C5=CC(=O)OC5)[C@@H](OC(C)=O)C[C@]43O)C2)O[C@@H](C)[C@@H]1O` [OLEANDRIN], the residual activity [1] is reported as 91.7% and the residual activity [2] is reported as 111.5%.
`COc1ccc(-c2c(O)c3c(OC)c4c(cc3oc2=O)OC(C)(C)C=C4)cc1` [ROBUSTIC ACID] showed a residual activity [1] of 74.37% and a residual activity [2] of 96.44%.
In the case of `CC(=O)/C(=C\c1ccccc1)CC(=O)O` [LEVULINIC ACID,  3-BENZYLIDENYL-], the residual activity [1] is reported as 110.1% and the residual activity [2] is reported as 134.7%.
In the case of `CC(=O)Oc1ccc(/C=C/c2cc(OC(C)=O)cc(OC(C)=O)c2)cc1` [TRIACETYLRESVERATROL], the residual activity [1] is reported as 143.6% and the residual activity [2] is reported as 160.6%.
`CCNC(=O)CC[C@H](N)C(=O)O` [THEANINE] was tested, and the residual activity [1] was 82.21% and the residual activity [2] was 120.6%.
Work on `O=C(CC[N+](=O)[O-])OC[C@H]1O[C@@H](O)[C@H](OC(=O)CC[N+](=O)[O-])[C@@H](OC(=O)CC[N+](=O)[O-])[C@@H]1OC(=O)CC[N+](=O)[O-]` [ENDECAPHYLLIN X] yielded a residual activity [1] of 82.04% and a residual activity [2] of 80.29%.
`CC(=O)O[C@]1(C(C)=O)CC[C@H]2[C@@H]3C=C(C)C4=CC(=O)CC[C@]4(C)[C@H]3CC[C@@]21C` [MEGESTROL ACETATE] showed a residual activity [1] of 93.03% and a residual activity [2] of 50.69%.
